Source: patent US20030077289A1, “Use of cell-penetrating peptides to generate antitumor immunity” (priority 2001, published 2003)
Residues, ends and D or L forms follow the SMILES beside them.

How the values were obtained:
B16 tumor = settings: Schreurs et al., 2000; 9-mer versus 8-mer; cited from earlier work
mature DCs = assay: Entry of fluorescein-labeled peptides into mature DCs (fluorescence microscopy); type: cell-based, C57BL/6 mouse
Experimental: 1A) Peptide sequences for cell-penetrating peptide (CPP1), TRP-2 and control peptides. B) Fluorescence and phase-contrast microscopy of DC incubated with various peptide-FITC (40×magnification). DCs incubated with PBS served as a control. 1C) DCs incubated with CPP1-TRP2-FITC and viewed by phase-contrast or fluorescence microscopy at 60×magnification. Representative examples of DC/CPP1-TRP2-FITC are shown. The penetrating fluorescent peptide was localized in both the cytoplasm as well as the cell nucleus. 1D) T cell response to DCs loaded with each peptide (solid circle for CPP1-TRP2, open circle for TRP2, and open triangle for CPP1-βgal) at different time points after peptide pulsing. GM-CSF release from T cells was determined by ELISA.
Dendritic Cell Preparation and Analysis. Mouse immature and mature DCs were derived from C57BL/6 bone marrow as previously described (Labeur et al., 1999; Specht et al., 1997). Phenotype and mixed leukocyte reaction activity of DCs were analyzed according to the protocol described (Specht et al., 1997). Briefly, immature DCs were generated in the presence of murine GM-CSF without transfer steps. The loosely adherent immature DCs were harvested on day 5 and used for experiments. Mature DCs were generated in the presence of recombinant GM-CSF and 1000 U/ml of IL-4 (Peprotech, Rocky Hill, N.J.). […]

CD4+ T cells = assay: Peptide-specific CD4+ T cell activity; type: cell-based

| Molecule | CTL activity in vitro after multiple immunization (B16 tumor) | intracellular localization of peptide in DCs (mature DCs; fluorescein-labeled peptide, mature DC) | internalization of peptide into mature DCs (mature DCs; peptide labeled at N-terminus with fluorescein, incubated with mature DC) | peptide-specific CD4+ T cell activity (CD4+ T cells) |
| --- | --- | --- | --- | --- |
| CC(C)C[C@H](NC(=O)[C@H](Cc1c[nH]c2ccccc12)NC(=O)[C@@H](NC(=O)[C@H](Cc1ccccc1)NC(=O)[C@H](Cc1ccccc1)NC(=O)[C@H](CC(=O)O)NC(=O)[C@H](Cc1ccc(O)cc1)NC(=O)[C@@H](N)C(C)C)C(C)C)C(=O)O [TRP2 (VYDFFVWL 8-mer), VYDFFVWL] (H-VYDFFVWL-OH) | comparable | – | – | – |
| AAVLLPVLLAAPSVYDFFVWL [CPP1-TRP2, TRP2 peptide covalently linked to cell-penetrating peptide CPP1 (21-mer)] | – | translocated and accumulated in the cytoplasm as well as the cell nucleus | efficiently internalized | not detected |
| SVYDFFVWL [TRP2, reference compound] | – | – | – | not detected |
